The test system of test [1] is lactotrope. The following applies: rats; cited from earlier work.
For test [2], the system named is perifused rat AP cells. The conditions noted are these: exogenously added; cited from earlier work.
For test [3], the system named is GGH3 cells. Put plainly: Two-tier co-culture of CT transfectants with GGH3 cells: PRL release by RIA. Type of test: cell-based, rat. The conditions noted are these: summary statement. As to the method: Levels of CTI and PRL in the conditioned media of LβT2 cells and CT-transfectants were determined by radioimmunoassay (RIA). The PRL RIA used the reagents provided by the National Institute of Diabetes, Digestive and Kidney diseases (NIDDK), and the assay protocol recommended by the NIDDK was followed. CTI was determined as described previously. All samples from this series of experiments were concurrently run in duplicate in the same RIA. Protein A (IgG Sorb) was used for the separation of bound from free hormone antigen. The experiments were repeated at least three separate times, and data from all the experiments were pooled for statistical analysis.
To further examine the role of pituitary-derived CT in lactotrope function, a two-tier co-culture system was developed where b 1×10^5 LβT2 cells or CT transfectants (CT.U6/A or CT.U6/B) are cultured separately in an upper chamber insert, whereas 2×10^5 GGH3 cells per well (target cells) are cultured in a 12-well plate. […] The conditioned media were analyzed for PRL by RIA. […]
The results on PRL release are expressed as ng PRL released by 100,000 cells over 24 hours. The results on PRL mRNA were digitized, normalized with β-actin mRNA and expressed as normalized densitometric units. […]

Bridges are numbered along the chain shown (N, C = ends). Where no end group is shown, it is not given here.

In the case of “salmon calcitonin (CSNLSTCVLGKLSQELHKLQTYPRTNTGSGTP-NH2; disulfide 1-7) [SCT, calcitonin-like peptide derived from salmon]”, the “Inhibition of PRL gene transcription and lactotrope cell proliferation” value in test [1] is recorded as “potent inhibitor”. Besides, in test [2], the “PRL release from perifused rat AP cells” value is listed as “significantly attenuates” and the “Secretion of GH, FSH, LH or TSH from perifused rat AP cells” value is reported as “without altering”.

B1: Pit-CT: anterior pituitary-derived peptide with sequence homology to calcitonin; mature peptide SEQ. ID No. 3 and No. 4 (protein)
chain: QDQESPLRKHCLAPSGSPQAELQGTAHQEGIMGFLKFSPFLVVSILLLYQACSLQAVPLRSILGSSPGMATLSEEVRLLAAALVQDYMGMKPRELEQEEEQEAEGSSLDSPRSKRCGNLTTCMLGTYTQDLDLFHTFPQTSIGVEALGGEKGCGQGLGDLPPIPFWQLSSSFSPF
modifications: left off: small tags and cut ends
For the molecule B1, the “Inhibition of prolactin secretion by the pituitary of rats” value in test [3] was “very potent inhibitor”.

The record behind these values is patent publication US20030114383A1, “Calcitonin-like sequence expressed by gonadotropes of the anterior pituitary” (priority 2001, published 2003).
